In patent US4450269A, “Mono-5-substituted-3-chloro-4H-1,2,6-thiadiazin-4-one antifungal agents” (FMC Corporation, priority 1980, dated 1984):

How the values were obtained:
Botrytis cinerea = assay: Spore germination test; assay type: cell-based; conditions: BC, 48 hours
Method: (§1) The test chemical was dissolved or suspended in acetone in an amount such that 0.8 ml of the resulting suspension or solution, mixed with 40 ml water agar produced a water agar solution containing 40, 10, 2.5 and 1 ppm of test chemical. The resulting agar solution, at 50° C., was then divided equally between two sterile petri dishes, each having four separated quadrants, and allowed to solidify. […] quadrants of each dish were flooded with 0.1 ml of a spore suspension in sterile water. Spores of two pathogens, Erysiphe polygoni and Uromyes phaseoli, from infected plant leaves, were brushed on the remaining two quadrants. The tests were then incubated 48 hours, at 24° C.
(§2) Readings were then taken and the percentage of germinated spores calculated. From this percentage, a spore germination rating was assigned as follows: […]

Venturia inaequalis = assay: Spore germination test; assay type: cell-based; conditions: VI, 48 hours
Method: VI = Venturia inaequalis
as §1, §2

Compound	Spore Germination Rating (Botrytis cinerea; 1.0 ppm)	Spore Germination Rating (Botrytis cinerea; 2.5 ppm)	Spore Germination Rating (Botrytis cinerea; 10 ppm)	Spore Germination Rating (Botrytis cinerea; 40 ppm)	Spore Germination Rating (Venturia inaequalis; 1.0 ppm)	Spore Germination Rating (Venturia inaequalis; 2.5 ppm)	Spore Germination Rating (Venturia inaequalis; 10 ppm)	Spore Germination Rating (Venturia inaequalis; 40 ppm)
O=c1c(Cl)nsnc1Oc1cccc(Cl)c1 [Compound 13, 3-chloro-5-(3-chlorophenoxy)-4H--1,2,6-thiadiazin-4-one]	4 (80-100)	4 (80-100)	0 (0-10)	0 (0-10)	1 (10-40)	0 (0-10)	0 (0-10)	0 (0-10)
O=c1c(Cl)nsnc1Oc1ccccc1Cl [Compound 14, 3-chloro-5-(2-chlorophenoxy)-4H--1,2,6-thiadiazin-4-one]	3 (60-80)	0 (0-10)	0 (0-10)	0 (0-10)	0 (0-10)	0 (0-10)	0 (0-10)	0 (0-10)
O=c1c(Cl)nsnc1Oc1ccc(Br)cc1 [Compound 15, 3-chloro-5-(4-bromophenoxy)-4H--1,2,6-thiadiazin-4-one]	4 (80-100)	1 (10-40)	0 (0-10)	0 (0-10)	0 (0-10)	0 (0-10)	0 (0-10)	0 (0-10)
O=c1c(Cl)nsnc1Oc1ccc(Cl)c(Cl)c1 [Compound 16, 3-chloro-5-(3,4-dichlorophenoxy)-4H--1,2,6-thiadiazin-4-one]	4 (80-100)	1 (10-40)	0 (0-10)	1 (10-40)	0 (0-10)	0 (0-10)	0 (0-10)	0 (0-10)
O=c1c(Cl)nsnc1Oc1ccc(O)cc1 [Compound 35, 3-chloro-5-(4-hydroxyphenoxy)-4H-1,2,6-thiadiazin-4-one]	4 (80-100)	4 (80-100)	4 (80-100)	3 (60-80)	–	–	–	–
O=C(Nc1ccccc1)Oc1ccc(Oc2nsnc(Cl)c2=O)cc1 [Compound 37, 3-chloro-5-[4-(phenylaminocarbonyloxy)phenoxy]-4H-1,2,6,-thiadiazin-4-one]	4 (80-100)	4 (80-100)	4 (80-100)	4 (80-100)	–	–	–	–
CSc1ccc(Oc2nsnc(Cl)c2=O)cc1 [Compound 39, 3-chloro-5-[(4-methylthio)phenoxy]-4H-1,2,6,-thiadiazin-4-one]	4 (80-100)	4 (80-100)	4 (80-100)	3 (60-80)	–	–	–	–
C[S+]([O-])c1ccc(Oc2nsnc(Cl)c2=O)cc1 (centres unmarked) [Compound 40, 3-chloro-5-[(4-methylsulfinyl)phenoxy]-4H-1,2,6,-thiadiazin-4-one]	4 (80-100)	4 (80-100)	4 (80-100)	3 (60-80)	–	–	–	–
CS(=O)(=O)c1ccc(Oc2nsnc(Cl)c2=O)cc1 [Compound 41, 3-chloro-5-[(4-methylsulfonyl)phenoxy]-4H--1,2,6-thiadiazin-4-one]	0 (0-10)	0 (0-10)	4 (80-100)	3 (60-80)	–	–	–	–
N#CCc1ccc(Oc2nsnc(Cl)c2=O)cc1 [Compound 46, 3-chloro-5-[(4-cyanomethyl)-phenoxy]4H--1,2,6-thiadiazin-4-one]	4 (80-100)	3 (60-80)	3 (60-80)	0 (0-10)	–	–	–	–
COc1ccc(Cl)c(Oc2nsnc(Cl)c2=O)c1 [Compound 51, 3-chloro-5-[(2-chloro-5-methoxy)phenoxy]-4H--1,2,6-thiadiazin-4-one]	4 (80-100)	3 (60-80)	0 (0-10)	0 (0-10)	–	–	–	–
O=c1c(Cl)nsnc1Oc1ccc([N+](=O)[O-])cc1Cl [Compound 53, 3-chloro-5-(2-chloro-4-nitrophenoxy)-4H--1,2,6-thiadiazin-4-one]	3 (60-80)	0 (0-10)	0 (0-10)	0 (0-10)	–	–	–	–
Cc1ccc(Cl)c(Oc2nsnc(Cl)c2=O)c1 [Compound 56, 3-chloro-5-[(2-chloro-5-methyl)phenoxy]-4H--1,2,6-thiadiazin-4-one]	4 (80-100)	0 (0-10)	0 (0-10)	0 (0-10)	–	–	–	–
